Measurements: patent US20210045385A1, “PYRIDAZINONE-SUBSTITUTED KETOXIMES AS HERBICIDES” (FMC Corporation, priority 2018, published 2021)

Legend:
Assay type in all cases: in vivo
[1] = tested on: duck salad (Heteranthera limosa); test: Test D flooded paddy test, visual plant response rating; conditions: 250 g ai/ha, scale 0 to 100 (0 no effect, 100 complete control), 13 to 15 d
Method in brief: (§1)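 Greenhouse paddy assay scored on a 0–100 visual scale after 13 to 15 d, where 100 means complete control and a dash marks no result; dosing was into 3 cm floodwater over 2-leaf plants.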

[2] = tested on: sedge umbrella (small-flower umbrella sedge, Cyperus difformis); test: as above; conditions: 250 g ai/ha, scale 0 to 100 (0 no effect, 100 complete control), 13 to 15 d
Method in brief: as §1

[3] = tested on: rice (Oryza sativa); test: as above; conditions: 250 g ai/ha, scale 0 to 100 (0 no effect, 100 complete control), 13 to 15 d
Method in brief: as §1

[4] = tested on: barnyardgrass (Echinochloa crus-galli); test: as above; conditions: 250 g ai/ha, scale 0 to 100 (0 no effect, 100 complete control), 13 to 15 d
Method in brief: as §1

[5] = tested on: foxtail, giant (giant foxtail, Setaria faberi); test: Test C preemergence, visual plant response rating
Method in brief: (§2)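 Seeds sown in a loam–sand blend got a directed preemergence soil spray; postemergence plants (2–10 cm, one- to two-leaf stage) were sprayed with compound in a non-phytotoxic solvent plus surfactant. Injury was scored visually against untreated controls after about 10 d in a greenhouse on a 0–100 scale (100 = complete control).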

[6] = tested on: Italian ryegrass (Lolium mutiflorum); test: Test C preemergence, visual plant response rating
Method in brief: as §2

[7] = tested on: kochia (Bassia scoparia); test: Test C preemergence, visual plant response rating
Method in brief: as §2

[8] = tested on: ragweed (common ragweed, Ambrosia artemisiifolia); test: Test C preemergence, visual plant response rating; conditions: Test C, 0 is no effect, 100 is complete control
Method in brief: as §2

[9] = tested on: pigweed (Amaranthus retroflexus); test: Test C preemergence, visual plant response rating
Method in brief: as §2

[10] = tested on: barnyardgrass (Echinochloa crus-galli); test: Test C preemergence, visual plant response rating
Method in brief: as §2

[11] = tested on: wheat (Triticum aestivum); test: Test C postemergence, visual plant response rating
Method in brief: as §2

[12] = tested on: foxtail, giant (giant foxtail, Setaria faberi); test: Test C postemergence, visual plant response rating
Method in brief: as §2

[13] = tested on: Italian ryegrass (Lolium mutiflorum); test: Test C postemergence, visual plant response rating
Method in brief: as §2

[14] = tested on: blackgrass (Alopecurus myosuroides); test: Test C postemergence, visual plant response rating
Method in brief: as §2

[15] = tested on: kochia (Bassia scoparia); test: Test C postemergence, visual plant response rating
Method in brief: as §2

[16] = tested on: ragweed (common ragweed, Ambrosia artemisiifolia); test: Test C postemergence, visual plant response rating
Method in brief: as §2

[17] = tested on: pigweed (Amaranthus retroflexus); test: Test C postemergence, visual plant response rating
Method in brief: as §2

[18] = tested on: barnyardgrass (Echinochloa crus-galli); test: Test C postemergence, visual plant response rating
Method in brief: as §2

[19] = tested on: corn (Zea mays); test: Test C postemergence, visual plant response rating
Method in brief: as §2

[20] = tested on: galium (catchweed bedstraw, Galium aparine); test: Test C postemergence, visual plant response rating
Method in brief: as §2

[21] = Test C, 31 g ai/ha, 0 is no effect, 100 is complete control
[22] = Test C, 125 g ai/ha, 0 is no effect, 100 is complete control
[23] = Test C, postemergence, 125 g ai/ha

SMILES | Plant response rating, Ducksalad (Flood) [1] | Plant response rating, Sedge, Umbrella (Flood) [2] | Plant response rating, Rice (Flood) [3] | Plant response rating, Barnyardgrass (Flood) [4] | Foxtail, Giant plant response rating (0 to 100 scale) [5, 21] | Ryegrass, Italian plant response rating (0 to 100 scale) [6, 21] | Kochia plant response rating (0 to 100 scale) [7, 21] | Pigweed plant response rating (0 to 100 scale) [9, 21] | Barnyardgrass plant response rating (0 to 100 scale) [10, 21] | Wheat plant response rating (0 to 100 scale) ([11]; Postemergence, 31 g ai/ha) | Wheat plant response rating (0 to 100 scale) [11, 23] | Foxtail, Giant plant response rating (0 to 100 scale) ([12]; Postemergence, 31 g ai/ha) | Foxtail, Giant plant response rating (0 to 100 scale) [12, 23] | Ryegrass, Italian plant response rating (0 to 100 scale) ([13]; Postemergence, 31 g ai/ha) | Ryegrass, Italian plant response rating (0 to 100 scale) [13, 23] | Blackgrass plant response rating (0 to 100 scale) ([14]; Postemergence, 31 g ai/ha) | Blackgrass plant response rating (0 to 100 scale) [14, 23] | Kochia plant response rating (0 to 100 scale) ([15]; Postemergence, 31 g ai/ha) | Kochia plant response rating (0 to 100 scale) [15, 23] | Ragweed plant response rating (0 to 100 scale) ([16]; Postemergence, 31 g ai/ha) | other results
CC(C)O/N=C(/c1c(O)cnn(C)c1=O)c1ccc(F)c2ccccc12 [Compound 302] | 0 | 0 | 0 | 0 | 0 | 0 | 0 | 10 | 0 | 0 | 0 | 10 | 30 | 0 | 30 | 0 | 0 | 0 | 20 | 0 | Foxtail, Giant plant response rating (0 to 100 scale) [5, 22]: 10; Ryegrass, Italian plant response rating (0 to 100 scale) [6, 22]: 0; Kochia plant response rating (0 to 100 scale) [7, 22]: 0; Ragweed plant response rating (0 to 100 scale) ([8]; 31 g ai/ha): 0; Ragweed plant response rating (0 to 100 scale) ([8]; 125 g ai/ha): 20; Pigweed plant response rating (0 to 100 scale) [9, 22]: 40; Barnyardgrass plant response rating (0 to 100 scale) [10, 22]: 0; Ragweed plant response rating (0 to 100 scale) [16, 23]: 20; Pigweed plant response rating (0 to 100 scale) ([17]; Postemergence, 31 g ai/ha): 30; Pigweed plant response rating (0 to 100 scale) [17, 23]: 60; Barnyardgrass plant response rating (0 to 100 scale) ([18]; Postemergence, 31 g ai/ha): 0; Barnyardgrass plant response rating (0 to 100 scale) [18, 23]: 0; Corn plant response rating (0 to 100 scale) ([19]; Postemergence, 31 g ai/ha): 0; Corn plant response rating (0 to 100 scale) [19, 23]: 0; Galium plant response rating (0 to 100 scale) ([20]; Postemergence, 31 g ai/ha): 20; Galium plant response rating (0 to 100 scale) [20, 23]: 60
Cc1nn(C)c(=O)c(C(=NOCC2CC2)c2cc(Cl)cc(Cl)c2Cl)c1O [Compound 293] | 0 | 0 | 0 | 0 | 90 | 30 | 0 | 0 | 0 | 40 | 70 | 40 | 80 | 100 | 100 | 0 | 0 | 0 | 30 | 100 | Foxtail, Giant plant response rating (0 to 100 scale) [5, 22]: 100; Ryegrass, Italian plant response rating (0 to 100 scale) [6, 22]: 100; Kochia plant response rating (0 to 100 scale) [7, 22]: 0; Ragweed plant response rating (0 to 100 scale) ([8]; 31 g ai/ha): 40; Ragweed plant response rating (0 to 100 scale) ([8]; 125 g ai/ha): 100; Pigweed plant response rating (0 to 100 scale) [9, 22]: 70; Barnyardgrass plant response rating (0 to 100 scale) [10, 22]: 0; Ragweed plant response rating (0 to 100 scale) [16, 23]: 100; Pigweed plant response rating (0 to 100 scale) ([17]; Postemergence, 31 g ai/ha): 20; Pigweed plant response rating (0 to 100 scale) [17, 23]: 40; Barnyardgrass plant response rating (0 to 100 scale) ([18]; Postemergence, 31 g ai/ha): 20; Barnyardgrass plant response rating (0 to 100 scale) [18, 23]: 50; Corn plant response rating (0 to 100 scale) ([19]; Postemergence, 31 g ai/ha): 0; Corn plant response rating (0 to 100 scale) [19, 23]: 10; Galium plant response rating (0 to 100 scale) ([20]; Postemergence, 31 g ai/ha): 100; Galium plant response rating (0 to 100 scale) [20, 23]: 100
CCON=C(c1cc(Cl)cc(Br)c1)c1c(O)c(C)nn(C)c1=O [Compound 181] | 0 | 0 | 0 | 0 | 50 | 0 | 30 | 30 | 0 | 0 | 50 | 50 | 80 | 70 | 100 | 0 | 20 | 60 | 80 | 100 | Foxtail, Giant plant response rating (0 to 100 scale) ([5]; 125 g ai/ha): 90; Ryegrass, Italian plant response rating (0 to 100 scale) ([6]; 125 g ai/ha): 90; Kochia plant response rating (0 to 100 scale) ([7]; 125 g ai/ha): 70; Pigweed plant response rating (0 to 100 scale) ([9]; 125 g ai/ha): 90; Barnyardgrass plant response rating (0 to 100 scale) ([10]; 125 g ai/ha): 60; Ragweed plant response rating (0 to 100 scale) [16, 23]: 100; Pigweed plant response rating (0 to 100 scale) ([17]; Postemergence, 31 g ai/ha): 40; Pigweed plant response rating (0 to 100 scale) [17, 23]: 90; Barnyardgrass plant response rating (0 to 100 scale) ([18]; Postemergence, 31 g ai/ha): 40; Barnyardgrass plant response rating (0 to 100 scale) [18, 23]: 60; Corn plant response rating (0 to 100 scale) ([19]; Postemergence, 31 g ai/ha): 0; Corn plant response rating (0 to 100 scale) [19, 23]: 30; Galium plant response rating (0 to 100 scale) ([20]; Postemergence, 31 g ai/ha): 100; Galium plant response rating (0 to 100 scale) [20, 23]: 100
CON=C(c1c(OC(C)=O)c(Cl)nn(C)c1=O)c1ccc(F)c2ccccc12 [Compound 190] | 0 | 0 | 0 | 0 | 60 | 0 | 0 | 20 | 30 | 0 | 0 | 10 | 30 | 10 | 20 | 0 | 20 | 10 | 20 | 10 | Foxtail, Giant plant response rating (0 to 100 scale) ([5]; 125 g ai/ha): 70; Ryegrass, Italian plant response rating (0 to 100 scale) ([6]; 125 g ai/ha): 60; Kochia plant response rating (0 to 100 scale) ([7]; 125 g ai/ha): 0; Pigweed plant response rating (0 to 100 scale) ([9]; 125 g ai/ha): 90; Barnyardgrass plant response rating (0 to 100 scale) ([10]; 125 g ai/ha): 50; Ragweed plant response rating (0 to 100 scale) [16, 23]: 60; Pigweed plant response rating (0 to 100 scale) ([17]; Postemergence, 31 g ai/ha): 30; Pigweed plant response rating (0 to 100 scale) [17, 23]: 30; Barnyardgrass plant response rating (0 to 100 scale) ([18]; Postemergence, 31 g ai/ha): 30; Barnyardgrass plant response rating (0 to 100 scale) [18, 23]: 20; Corn plant response rating (0 to 100 scale) ([19]; Postemergence, 31 g ai/ha): 0; Corn plant response rating (0 to 100 scale) [19, 23]: 0; Galium plant response rating (0 to 100 scale) ([20]; Postemergence, 31 g ai/ha): 90; Galium plant response rating (0 to 100 scale) [20, 23]: 100
